Assay results as given in US5639751A, “N-acyl-2,3-benzodiazepine derivatives for treating acute and chronic neurodegenerative disorders” (priority 1990, dated 1997).
Where a name gives a salt, the structure may show the parent alone. Read-outs that look alike come from different tables or passages of the source.

Tests used:
[1] = tested on: male CFLP mice; experiment: Anticonvulsive effect in mice, electroshock test; assay type: in vivo; conditions: Mus musculus, po, read-out: ED50 p.o., ES (electroshock)
Protocol: (§1) The anticonvulsive effect of the compounds of the formula (I) was measured by using the electroshock test [J. Pharmacol. Exp. Ther. 106, 319 (1952)], furthermore by using various chemical agents such as pentetrazole [J. Pharmacol. Exp. Ther. 108, 168 (1953)], strychnine [J. Pharmacol. Exp. Ther. 129, 75 (1960)], bemegride, nicotine and 4-aminopyridine. The test compounds were orally administered in 3 doses, to 10 male CFLP mice per dose.

[2] = tested on: male CFLP mice; experiment: Anticonvulsive effect in mice, pentetrazole; assay type: in vivo; conditions: Mus musculus, po, read-out: ED50 p.o., Pentetrazole
Protocol: as §1

[3] = tested on: CFLP mice; experiment: Inclined screen test in mice; assay type: in vivo; conditions: Mus musculus, ip, read-out: ED50 i.p., inclined screen test
Text: In Randall's inclined screen test [J. Pharmacol. Exp. Ther. 129, 163 (1960)] the compounds were applied in 3 i.p. doses to 10 CFLP mice per dose.

[4] = tested on: mice; experiment: Rotarod test in mice; assay type: in vivo; conditions: Mus musculus, ip, read-out: ED50 i.p., rotarod test
Text: The rotarod test was used to measure muscular tone and motor co-ordination [J. Am. Pharm. Assoc. 46, 208 (1957)].

[5] = tested on: male CFLP mice; experiment: Anticonvulsive effect in mice, strychnine; assay type: in vivo; conditions: Mus musculus, po, read-out: ED50 p.o., Strychnine
Protocol: as §1

[6] = tested on: male CFLP mice; experiment: Anticonvulsive effect in mice, bemegride; assay type: in vivo; conditions: Mus musculus, po, read-out: ED50 p.o., Bemegride
Protocol: as §1

[7] = tested on: male CFLP mice; experiment: Anticonvulsive effect in mice, nicotine; assay type: in vivo; conditions: Mus musculus, po
Protocol: as §1

[8] = tested on: cats; experiment: Effects on spinal root reflex potentials in spinalized and immobilized cats; assay type: in vivo; conditions: for minimal effective dose: Felis catus
Protocol: The effect of compound of Example 15(16) on the spinal root potentials in cats was tested in spinalized and immobilized animals [Neuropharmacology 21, 161 (1989)].

[9] = tested on: male CFLP mice; experiment: Anticonvulsive effect in mice, 4-aminopyridine; assay type: in vivo; conditions: Mus musculus, po, read-out: ED50 p.o., 4-AP (4-aminopyridine)
Protocol: as §1

[10] = Acute toxicity in mice; conditions: mouse, in vivo
Protocol: The cause of mortality was respiratory insufficiency developing within 1 to 2 hours after i.p. administration and within 10 to 20 hours after oral application.

[11] = tested on: mice; experiment: Protection against methamphetamine-induced dopaminergic neurotoxicity, in mice; assay type: in vivo; conditions: METH 2×20 mg/kg i.p., Example 128 3×5 mg/kg i.p., MK-801 3×2.5 mg/kg i.p.
Protocol: High doses of methamphetamine (2×20 mg/kg i.p.) decrease the striatal level of dopamine, which can be prevented by glutamate antagonists, e.g. the NMDA-antagonist MK-801 [Science 243, 398 (1989)].

Row | Compound | ED50 ([1]; mice, p.o.) [mg/kg] | ED50 ([2]; mice, p.o.) [mg/kg] | ED50 [5] [mg/kg] | ED50 [7] [mg/kg] | ED50 ([6]; mice, p.o.) [mg/kg] | ED50 ([9]; mice, p.o.) [mg/kg] | LD50 ([10]; ip, read-out: LD50 i.p.) [mg/kg] | LD50 ([10]; po, read-out: LD50 p.o.) [mg/kg] | ED50 ([3]; mice, i.p.) [mg/kg] | ED50 ([4]; mice, i.p.) [mg/kg] | further results
1 | CC1=NN=C(c2ccc(NC(=O)C(C)N)cc2)c2cc3c(cc2C1)OCO3 (racemic) [Example 69] | 57 | > 100 |  |  |  |  |  |  |  |  | 
2 | NCC(CC(=O)O)c1ccc(Cl)cc1 (stereo not drawn) [Baclofen, β-(aminomethyl)-4-chlorobenzeneprioionic acid, reference compound] |  |  |  |  |  |  |  |  |  |  | ED50 [3]: 26 mg/kg; ED50 [4]: 12.5 mg/kg
3 | CN1C(=O)CN=C(c2ccccc2)c2cc(Cl)ccc21 [Diazepam, 7-chloro-1,3-dihydro-1-methyl-5-phenyl-2H-1,4-benzodiazepin-2-one, reference compound] |  |  | 15 | 1.85 |  |  |  |  |  |  | ED50 [1]: 18 mg/kg; ED50 [2]: 0.86 mg/kg; ED50 [6]: 0.58 mg/kg; Effect on both dorsal root responses [8]: markedly potentiated; minimal effective dose ([8]; read-out: Minimal effective dose, inhibition of polysynaptic reflexes): < 0.1 mg/kg; minimal effective dose ([8]; read-out: Minimal effective doses, potentiation of dorsal root responses): ~0.1 mg/kg; Maximal inhibition of polysynaptic reflexes ([8]; partial inhibition): ≤ 50%; Effect on monosynaptic reflexes ([8]; up to 3.2 mg/kg): did not affect
4 | CCC(=O)N1N=C(c2ccc(N)cc2)c2cc3c(cc2CC1C)OCO3 (stereo not drawn) [Example 18] |  |  | > 100 | 16 |  |  |  |  |  |  | ED50 [1]: 17.5 mg/kg; ED50 [2]: 29 mg/kg; ED50 [6]: 20 mg/kg; ED50 [9]: 16 mg/kg; ED50 [3]: 31 mg/kg; ED50 [4]: 7.5 mg/kg
5 | CC(=O)N(C(C)=O)c1ccc(C2=NN(C(C)=O)C(C)Cc3cc4c(cc32)OCO4)cc1 (stereo not drawn) [Example 39, 1-(4-Diacetylaminophenyl)-3-acetyl-4-methyl-7,8-methylenedioxy-3,4-dihydro-5H-2,3-benzodiazepine] | 53 | 170 |  |  | > 200 | 29 | 271 | > 600 |  |  | 
6 | CC(=O)Nc1ccc(C2=NN(C(C)=O)C(C)Cc3cc4c(cc32)OCO4)cc1 (stereo not drawn) [Example 42, 1-(4-Acetylaminophenyl)-3-acetyl-4-methyl-7,8-methylenedioxy-3,4-dihydro-5H-2,3-benzodiazepine] | 24 | 33 | 28 | 155 | 24 | 34 | 120 | 185 | 42 | 8.1 | 
7 | CCC(=O)Nc1ccc(C2=NN(C(=O)CC)C(C)Cc3cc4c(cc32)OCO4)cc1 (stereo not drawn) [Example 45, 1-(4-Propionylaminophenyl)-3-propionyl-4-methyl-7,8-methylenedioxy-3,4-dihydro-5H-2,3-benzodiazepine] | 27 | 44 | > 100 | 23 | 51 | 34 | 98.4 | 206 | 35 | 10 | 
8 | CC(=O)N1N=C(c2ccc(NC=O)cc2)c2cc3c(cc2CC1C)OCO3 (stereo not drawn) [Example 46] | 20 | 57 | > 100 | 80 | 56 | 17 | 173 | 162 |  |  | 
9 | CCC(=O)Nc1ccc(C2=NN(C(C)=O)C(C)Cc3cc4c(cc32)OCO4)cc1 (stereo not drawn) [Example 48] | 10.5 | 30.5 | > 100 | 25 | 33 | 20 | 103 | 149 | 20.5 | 7.2 | 
10 | CCC(=O)N1N=C(c2ccc(NC(C)=O)cc2)c2cc3c(cc2CC1C)OCO3 (stereo not drawn) [Example 49] | 25 | 53 | > 100 | 45 | 43 | 28 |  |  | 36 | 9.4 | 
11 | COCC(=O)Nc1ccc(C2=NN(C(C)=O)C(C)Cc3cc4c(cc32)OCO4)cc1 (stereo not drawn) [Example 52] | 17.5 | 36 | > 100 | 13.5 | 29 | 24 | 117 | 188 | 21 | 4.8 | 
12 | CCC(=O)Nc1ccc(C2=NN(C=O)C(C)Cc3cc4c(cc32)OCO4)cc1 (stereo not drawn) [Example 60] | 24 | 62 |  |  |  |  |  |  |  |  | 
13 | CC(=O)N1N=C(c2ccc(NC(=O)C(F)(F)F)cc2)c2cc3c(cc2CC1C)OCO3 (stereo not drawn) [Example 62] | 12.5 | 56 | > 100 | 31 | 36 | 29 | 136 | 160 | 25.5 | 7.8 | 
14 | CC1=NN=C(c2ccc(NC(=O)CN)cc2)c2cc3c(cc2C1)OCO3 [Example 66, 1-(4-Glycylaminophenyl)-4-methyl-7,8-methylenedioxy-5H-2,3-benzodiazepine] | 42 | 135 | 105 | 105 | > 100 | 84 | 205 | 281 | 52 | 18.5 | 
15 | CC(=O)N1N=C(c2ccc(NC(=O)CN)cc2)c2cc3c(cc2CC1C)OCO3 (stereo not drawn) [Example 73] | 16 | 62 | > 100 | 53 | 49 | 28 | 143 | 168 | 27 | 6.3 | 
16 | CC(=O)N1N=C(c2ccc(NC(=O)CN(C)C)cc2)c2cc3c(cc2CC1C)OCO3 (stereo not drawn) [Example 107, 1-[4-(N,N-dimethylglycylamino)phenyl]-3-acetyl-4-methyl-7,8-methylenedioxy-3,4-dihydro-5H-2,3-benzodiazepine] | 23.5 | 120 | 22.8 | 34.2 | 25.4 | 36.8 |  |  |  |  | 
17 | CCN(CC)CC(=O)Nc1ccc(C2=NN(C(C)=O)C(C)Cc3cc4c(cc32)OCO4)cc1 (stereo not drawn) [Example 108, 1-[4-(N,N-diethylglycylamino)phenyl]-3-acetyl-4-methyl-7,8-methylenedioxy-3,4-dihydro-5H-2,3-benzodiazepine] | 27 | > 100 |  |  |  |  |  |  |  |  | 
18 | CC(=O)N1N=C(c2ccc(NC(=O)CN3CCCC3)cc2)c2cc3c(cc2CC1C)OCO3 (stereo not drawn) [Example 109, 1-[4-(1-Pyrrolidinoacetylamino)phenyl]-3-acetyl-4-methyl-7,8-methylenedioxy-3,4-dihydro-5H-2,3-benzodiazepine hydrogen fumarate] | 21 | > 100 |  |  |  |  |  |  |  |  | 
19 | CNC(=O)N1N=C(c2ccc(NC(=O)CN)cc2)c2cc3c(cc2CC1C)OCO3 (stereo not drawn) [Example 115, 1-(4-Glycylaminophenyl)-3-methylcarbamoyl-4-methyl-7,8-methylenedioxy-3,4-dihydro-5H-2,3-benzodiazepine] | 17.1 | 23.9 |  |  |  |  | 90.7 | 200 to 250 | 16.1 | 7.3 | 
20 | C[C@]12N[C@H](Cc3ccccc31)c1ccccc12 [MK-801, (+)-10,11-dihydro-5-methyl-5H-dibenzo[a,d]cyclohepten-5,10-imine (Z)-2-butene-dioate, reference compound] |  |  |  |  |  |  |  |  |  |  | (DOPAC + HVA)/DA, % ([11]; % of saline group): 132%; DA, % ([11]; % of saline group): 66%; (DOPAC + HVA)/DA, mean ± SE ([11]; striatal dopamine turnover): 0.33 ± 0.06; DA, μg/g tissue, mean ± SE ([11]; striatal dopamine): 10.01 ± 1.10 μg/g tissue
21 | O=C1NC(=O)C(c2ccccc2)(c2ccccc2)N1 [Phenytoin, 5,5-diphenyl-2,4-imidazolidinedione, reference compound] | 10 | > 400 | 160 | 12 | > 200 |  |  |  |  |  | 
